The test addresses recombinant Mcl-1 (residues 172-327) (Homo sapiens (Human), UniProt Q07820). Put plainly: Bak peptide binding assay, fluorescence polarization anisotropy competition (FITC-Bak), Mcl-1.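 Further: displacement of labeled Bak peptide read by fluorescence anisotropy, 10-point threefold dilutions from 20 µM top dose in 5% DMSO, 90 min incubation at room temperature.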 Conditions: Table 3, binned ranges; FITC-Bak peptide 10 nM, Mcl-1 14 nM; read-out: Ki for inhibition of Mcl-1.

SMILES strings stand for the structures. A value given as a limit tells only on which side of the number the result lay.

recombinant Mcl-1 (residues 172-327), sequence (Q07820 172-327): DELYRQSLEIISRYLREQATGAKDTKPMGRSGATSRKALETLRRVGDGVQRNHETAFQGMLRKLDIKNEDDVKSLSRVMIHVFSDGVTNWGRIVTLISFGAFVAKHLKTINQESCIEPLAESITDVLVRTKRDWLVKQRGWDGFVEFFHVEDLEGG
Procedure: Bak Peptide Binding Assay
Compound affinity was measured using a fluorescence polarization anisotropy competition assay. Anisotropy measurements were carried out in 384-well, black, flat-bottom plates (Greiner Bio-one, Monroe, N.C., USA). […] 10 nM FITC-Bak peptide and 14 nM recombinant Mcl-1 (residues 172-327) were added to assay buffer (3 mM dithiothreitol, 50 mM NaCl, 20 mM Tris, pH 7.5).
Compounds are diluted in DMSO in a 10-point, 3-fold serial dilution scheme. 2.5 uL compound is added to 47.5 uL of assay buffer containing FITC-Bak and protein, for a final DMSO concentration of 5% and a top concentration of 20 uM. […] The plate was mixed and incubated for 90 minutes at room temperature. Anisotropy is measured at excitation wavelength 480 nm and emission wavelength 535 nm using an EnVision Multi-label plate reader (PerkinElmer, Wellesley, Mass., USA).

As usually defined, the Ki is a dissociation constant, usually derived from enzyme kinetics or from competition with a known ligand. On to `Cc1cc(OCCCc2c(C(F)(F)F)n(Cc3ccc(C(=O)O)cc3)c3c(Br)cccc23)cc(C)c1Cl` [Example 116, 4-((7-bromo-3-(3-(4-chloro-3,5-dimethylphenoxy)propyl)-2-(trifluoromethyl)-1H-indol-1-yl)methyl)benzoic acid], for which the inhibition constant (Ki) lay in the range of 101 to 299 nM.

Take `Cc1cc(OCCCc2c(C(F)(F)F)n(CCc3ccc(C(=O)O)cc3)c3c(-c4c(C)nn(C)c4C)cccc23)cc(C)c1Cl` [Example 118, 4-(2-(3-(3-(4-chloro-3,5-dimethylphenoxy)propyl)-2-(trifluoromethyl)-7-(1,3,5-trimethyl-1H-pyrazol-4-yl)-1H-indol-1-yl)ethyl)benzoic acid]: the Ki is at most 100 nM.

`Cc1cc(OCCCc2c(C(F)(F)F)n(Cc3ccc(C(=O)O)cn3)c3c(Br)cccc23)cc(C)c1Cl` [Example 119, 6-((7-bromo-3-(3-(4-chloro-3,5-dimethylphenoxy)propyl)-2-(trifluoromethyl)-1H-indol-1-yl)methyl)nicotinic acid]: the inhibition constant (Ki) was in the range of 1000 to 9990 nM.

`Cc1cc(OCCCc2c(C(F)(F)F)n(CC(=O)O)c3c(-c4c(C)nn(C)c4C)cccc23)cc(C)c1Cl` [Example 120, 2-(3-(3-(4-chloro-3,5-dimethylphenoxy)propyl)-2-(trifluoromethyl)-7-(1,3,5-trimethyl-1H-pyrazol-4-yl)-1H-indol-1-yl)acetic acid]: the Ki is at most 100 nM.

Take `Cc1cc(OCCCc2c(C(F)(F)F)n(CC(=O)N3CCN(CC(=O)O)CC3)c3c(-c4c(C)nn(C)c4C)cccc23)cc(C)c1Cl` [Example 121, 2-(4-(2-(3-(3-(4-chloro-3,5-dimethylphenoxy)propyl)-2-(trifluoromethyl)-7-(1,3,5-trimethyl-1H-pyrazol-4-yl)-1H-indol-1-yl)acetyl)piperazin-1-yl)acetic acid]: the Ki was at most 100 nM.

On to `Cc1cc(OCCCc2c(C(F)(F)F)n(Cc3cccc(C(=O)O)c3)c3c(-c4c(C)nn(C)c4C)c(Cl)ccc23)cc(C)c1Cl` [Example 122, 3-((6-chloro-3-(3-(4-chloro-3,5-dimethylphenoxy)propyl)-2-(trifluoromethyl)-7-(1,3,5-trimethyl-1H-pyrazol-4-yl)-1H-indol-1-yl)methyl)benzoic acid], for which the Ki was at most 100 nM.

As to `Cc1cc(OCCCc2c(C(F)(F)F)n(Cc3cccc(C(=O)O)c3)c3c(-c4c(C)nn(C)c4C)cccc23)cc(C)c1Cl` [Example 123, 3-((3-(3-(4-chloro-3,5-dimethylphenoxy)propyl)-2-(trifluoromethyl)-7-(1,3,5-trimethyl-1H-pyrazol-4-yl)-1H-indol-1-yl)methyl)benzoic acid], the Ki is at most 100 nM.

`Cc1cc(OCCCc2c(C(F)(F)F)n(Cc3ccc(C(=O)O)cc3)c3c(-c4c(C)nn(C)c4C)cccc23)cc(C)c1Cl` [Example 124, 4-((3-(3-(4-chloro-3,5-dimethylphenoxy)propyl)-2-(trifluoromethyl)-7-(1,3,5-trimethyl-1H-pyrazol-4-yl)-1H-indol-1-yl)methyl)benzoic acid]: the inhibition constant (Ki) was at most 100 nM.

Turning to `Cc1cc(OCCCc2c(C)n(Cc3cccc(C(=O)NS(C)(=O)=O)c3)c3c(-c4c(C)nn(C)c4C)cccc23)cc(C)c1Cl` [Example 125, 3-((3-(3-(4-chloro-3,5-dimethylphenoxy)propyl)-2-methyl-7-(1,3,5-trimethyl-1H-pyrazol-4-yl)-1H-indol-1-yl)methyl)-N-(methylsulfonyl)benzamide], the inhibition constant Ki is at most 100 nM.

As for `Cc1cc(OCCCc2c(C)n(Cc3cccc(C(=O)NS(=O)(=O)c4ccccn4)c3)c3c(-c4c(C)nn(C)c4C)cccc23)cc(C)c1Cl` [Example 126, 3-((3-(3-(4-chloro-3,5-dimethylphenoxy)propyl)-2-methyl-7-(1,3,5-trimethyl-1H-pyrazol-4-yl)-1H-indol-1-yl)methyl)-N-(pyridin-2-ylsulfonyl)benzamide], the Ki was at most 100 nM.

As for `Cc1cc(OCCCc2c(C)n(Cc3cccc(C(=O)NS(=O)(=O)c4ccccc4)c3)c3c(-c4c(C)nn(C)c4C)cccc23)cc(C)c1Cl` [Example 127, 3-((3-(3-(4-chloro-3,5-dimethylphenoxy)propyl)-2-methyl-7-(1,3,5-trimethyl-1H-pyrazol-4-yl)-1H-indol-1-yl)methyl)-N-(phenylsulfonyl)benzamide], the Ki was at most 100 nM.

`Cc1cc(OCCCc2c(C)n(Cc3cccc(C(=O)NS(=O)(=O)c4ccncc4)c3)c3c(-c4c(C)nn(C)c4C)cccc23)cc(C)c1Cl` [Example 128, 3-((3-(3-(4-chloro-3,5-dimethylphenoxy)propyl)-2-methyl-7-(1,3,5-trimethyl-1H-pyrazol-4-yl)-1H-indol-1-yl)methyl)-N-(pyridin-4-ylsulfonyl)benzamide]: the Ki fell in the range of 101 to 299 nM.

Take `Cc1cc(OCCCc2c(C)n(Cc3cccc(C(=O)NS(=O)(=O)c4cccnc4)c3)c3c(-c4c(C)nn(C)c4C)cccc23)cc(C)c1Cl` [Example 129, 3-((3-(3-(4-chloro-3,5-dimethylphenoxy)propyl)-2-methyl-7-(1,3,5-trimethyl-1H-pyrazol-4-yl)-1H-indol-1-yl)methyl)-N-(pyridin-3-ylsulfonyl)benzamide]: the Ki was 101 to 299 nM.

Consider `Cc1cc(OCCCc2c(C)n(Cc3ccc(C(=O)NS(=O)(=O)c4ccccc4)cc3)c3c(-c4c(C)nn(C)c4C)cccc23)cc(C)c1Cl` [Example 130, 4-((3-(3-(4-chloro-3,5-dimethylphenoxy)propyl)-2-methyl-7-(1,3,5-trimethyl-1H-pyrazol-4-yl)-1H-indol-1-yl)methyl)-N-(phenylsulfonyl)benzamide], for which the inhibition constant Ki was at most 100 nM.

As to `Cc1cc(OCCCc2c(C)n(Cc3ccc(C(=O)NS(C)(=O)=O)cc3)c3c(-c4c(C)nn(C)c4C)cccc23)cc(C)c1Cl` [Example 131, 4-((3-(3-(4-chloro-3,5-dimethylphenoxy)propyl)-2-methyl-7-(1,3,5-trimethyl-1H-pyrazol-4-yl)-1H-indol-1-yl)methyl)-N-(methylsulfonyl)benzamide], the Ki was at most 100 nM.

In the case of `Cc1cc(OCCCc2c(C)n(Cc3ccc(C(=O)NS(=O)(=O)c4ccccn4)cc3)c3c(-c4c(C)nn(C)c4C)cccc23)cc(C)c1Cl` [Example 132, 4-((3-(3-(4-chloro-3,5-dimethylphenoxy)propyl)-2-methyl-7-(1,3,5-trimethyl-1H-pyrazol-4-yl)-1H-indol-1-yl)methyl)-N-(pyridin-2-ylsulfonyl)benzamide], the Ki is at most 100 nM.

Take `Cc1cc(OCCCc2c(C)n(CCC(=O)O)c3c(-c4c(C)nn(Cc5cccnc5)c4C)cccc23)cc(C)c1Cl` [Example 133, 3-(3-(3-(4-chloro-3,5-dimethylphenoxy)propyl)-7-(3,5-dimethyl-1-(pyridin-3-ylmethyl)-1H-pyrazol-4-yl)-2-methyl-1H-indol-1-yl)propanoic acid]: the inhibition constant Ki is at most 100 nM.

With `Cc1cc(OCCCc2c(C)n(Cc3ccc(C(=O)O)cn3)c3c(-c4c(C)nn(C)c4C)c(Cl)ccc23)cc(C)c1Cl` [Example 134, 6-((6-chloro-3-(3-(4-chloro-3,5-dimethylphenoxy)propyl)-2-methyl-7-(1,3,5-trimethyl-1H-pyrazol-4-yl)-1H-indol-1-yl)methyl)nicotinic acid], the Ki was at most 100 nM.

Turning to `Cc1cc(OCCCc2c(C(F)(F)F)n(CCC(=O)O)c3ccccc23)cc(C)c1Cl` [Example 135, 3-(3-(3-(4-chloro-3,5-dimethylphenoxy)propyl)-2-(trifluoromethyl)-1H-indol-1-yl)propanoic acid], the inhibition constant (Ki) is at most 100 nM.

For the origin of these results see US10954193B2 (Vanderbilt University, priority 2013, dated 2021).
